According to patent US7291649B2, “Forming germicidal aromatic dialdehydes with acetals” (Ethicon, Inc., priority 2005, dated 2007):
Values belong to the compound of their own block, whether it stands above or below them.

Tests used:
[1] = Hydrolysis of the tetramethyl acetal of IPA to IPA in water, gas chromatography; type: physicochemical; settings: pH 4.34 (HCl)
Procedure: The process takes place in two staged reactions. In one experiment, the tetramethyl acetal of IPA (0.114 g, 0.504 mmol) was suspended in 100 mL of water including 67 mg of OPA as the internal standard. A relatively large volume of water was used due to the low solubility of IPA. The pH of the water was adjusted to 4.34 with 1% HCl. At various time intervals 0.5 mL of the reaction mixture was sampled and extracted with 1 mL of ethyl acetate (EtOAc). The samples were analyzed with gas chromatography.
The diacetal starting material disappeared within 8 h, but hydrolysis of the second acetal group of the monoacetal took longer period of time.

[2] = Hydrolysis of OPA acetals to OPA in distilled water at various pH, monitored by GC/MS; type: physicochemical; settings: room temperature
Procedure: The reactions of 1,3-dimethoxyphthalan, 1,3-diethoxyphthalan, a PEG 200 pegylated OPA acetal at various pH in distilled water were evaluated at room temperature. The acetals were suspended in distilled water, followed by pH measurement, and pH adjustment with either hydrogen chloride (HCl), phthalic acid, or sodium hydroxide (NaOH), depending on the particular pH. The mixture was stirred at room temperature and monitored by gas chromatograph/mass spectroscopy (GC/MS) at various time intervals.
The hydrolysis rate depends upon pH. Over the range of pH investigated, the lower the pH, the faster the hydrolysis rate.

[3] = Hydrolysis of 1,3-diethoxyphthalan in the presence of OPA in distilled water at various pH, monitored by GC/MS; type: physicochemical
Procedure: The hydrolysis of 1,3-diethoxyphthalan in the presence of OPA in distilled water at various pH was evaluated at room temperature. 1,3-Diethoxyphthalan was added to the OPA solution in distilled water, followed by pH measurement and adjustment with either HCl or NaOH, depending on the pH. The mixtures were stirred at room temperature and monitored by GC/MS at various time intervals.

[4] = Solubility in 30% polyethylene glycol plus water solution; type: physicochemical
[5] = cited from earlier work
[6] = pH = 6.95, NaOH adjusted, 120 h
[7] = pH = 6.95, NaOH adjusted, 168 h
[8] = pH = 6.95, NaOH adjusted, 240 h
[9] = pH = 6.95, NaOH adjusted, 312 h
[10] = pH = 6.95, NaOH adjusted, 480 h
[11] = pH = 6.95, NaOH adjusted, 552 h
[12] = pH = 8.9, NaOH adjusted, 1200 h

SMILES: CCOC1OC(OCC)c2ccccc21 (centres unmarked) [1,3-diethoxyphthalan]
- OPA (w/w %) ([2]; pH = 5.4, HCl adjusted, water, 0 h): 0.000 w/w %
- OPA (w/w %) ([2]; pH = 5.4, HCl adjusted, water, 2 h): 0.024 w/w %
- OPA (w/w %) ([2]; pH = 5.4, HCl adjusted, water, 48 h): 0.056 w/w %
- OPA (w/w %) ([2]; pH = 5.4, HCl adjusted, water, 120 h): 0.158 w/w %
- OPA (w/w %) ([2]; pH = 5.4, HCl adjusted, water, 240 h): 0.296 w/w %
- OPA (w/w %) ([2]; pH = 5.4, HCl adjusted, water, 360 h): 0.525 w/w %
- OPA (w/w %) ([2]; pH = 5.4, HCl adjusted, water, 480 h): 0.596 w/w %
- OPA (w/w %) ([2]; pH = 6.9, water, 0 h): 0.000 w/w %
- OPA (w/w %) ([2]; pH = 6.9, water, 1 h): 0.000 w/w %
- OPA (w/w %) ([2]; pH = 6.9, water, 20 h): 0.010 w/w %
- OPA (w/w %) ([2]; pH = 6.9, water, 144 h): 0.097 w/w %
- OPA (w/w %) ([2]; pH = 6.9, water, 240 h): 0.204 w/w %
- OPA (w/w %) ([2]; pH = 6.9, water, 359 h): 0.419 w/w %
- OPA (w/w %) ([2]; pH = 6.9, water, 480 h): 0.476 w/w %
- OPA (w/w %) ([2]; pH = 10.8, NaOH adjusted, water, 48 h): 0.0048 w/w %
- OPA (w/w %) ([2]; pH = 10.8, NaOH adjusted, water, 120 h): 0.0062 w/w %
- OPA (w/w %) ([2]; pH = 10.8, NaOH adjusted, water, 480 h): 0.0473 w/w %
- OPA (w/w %) ([2]; pH = 10.8, NaOH adjusted, water, 720 h): 0.112 w/w %
- OPA (w/w %) ([2]; pH = 10.8, NaOH adjusted, water, 960 h): 0.229 w/w %
- Acetal % ([3]; pH = 6.95, NaOH adjusted, 0 h): 21.8%
- OPA % ([3]; pH = 6.95, NaOH adjusted, 0 h): 78.2%
- OPA (w %) ([3]; pH = 6.95, NaOH adjusted, 0 h): 0.498 w %
- Acetal % ([3]; pH = 6.95, NaOH adjusted, 48 h): 18.1%
- OPA % ([3]; pH = 6.95, NaOH adjusted, 48 h): 81.9%
- OPA (w %) ([3]; pH = 6.95, NaOH adjusted, 48 h): 0.509 w %
- Acetal % [3, 6]: 12.1%
- OPA % [3, 6]: 87.9%
- OPA (w %) [3, 6]: 0.527 w %
- Acetal % [3, 7]: 9.4%
- OPA % [3, 7]: 90.6%
- OPA (w %) [3, 7]: 0.535 w %
- Acetal % [3, 8]: 6.4%
- OPA % [3, 8]: 93.6%
- OPA (w %) [3, 8]: 0.543 w %
- Acetal % [3, 9]: 4.2%
- OPA % [3, 9]: 95.8%
- OPA (w %) [3, 9]: 0.550 w %
- Acetal % [3, 10]: 1.2%
- OPA % [3, 10]: 98.8%
- OPA (w %) [3, 10]: 0.559 w %
- Acetal % [3, 11]: 0.7%
- OPA % [3, 11]: 99.3%
- OPA (w %) [3, 11]: 0.560 w %
- Acetal % ([3]; pH = 8.0, NaOH adjusted, 0 h): 20.9%
- OPA % ([3]; pH = 8.0, NaOH adjusted, 0 h): 79.1%
- OPA (w %) ([3]; pH = 8.0, NaOH adjusted, 0 h): 0.498 w %
- Acetal % ([3]; pH = 8.0, NaOH adjusted, 48 h): 21.6%
- OPA % ([3]; pH = 8.0, NaOH adjusted, 48 h): 78.4%
- OPA (w %) ([3]; pH = 8.0, NaOH adjusted, 48 h): 0.496 w %
- Acetal % ([3]; pH = 8.0, NaOH adjusted, 144 h): 18.6%
- OPA % ([3]; pH = 8.0, NaOH adjusted, 144 h): 81.4%
- OPA (w %) ([3]; pH = 8.0, NaOH adjusted, 144 h): 0.505 w %
- Acetal % ([3]; pH = 8.0, NaOH adjusted, 240 h): 17%
- OPA % ([3]; pH = 8.0, NaOH adjusted, 240 h): 83.0%
- OPA (w %) ([3]; pH = 8.0, NaOH adjusted, 240 h): 0.510 w %
- Acetal % ([3]; pH = 8.0, NaOH adjusted, 312 h): 15.2%
- OPA % ([3]; pH = 8.0, NaOH adjusted, 312 h): 84.8%
- OPA (w %) ([3]; pH = 8.0, NaOH adjusted, 312 h): 0.515 w %
- Acetal % ([3]; pH = 8.0, NaOH adjusted, 480 h): 10.4%
- OPA % ([3]; pH = 8.0, NaOH adjusted, 480 h): 89.6%
- OPA (w %) ([3]; pH = 8.0, NaOH adjusted, 480 h): 0.530 w %
- Acetal % ([3]; pH = 8.0, NaOH adjusted, 576 h): 8.1%
- OPA % ([3]; pH = 8.0, NaOH adjusted, 576 h): 91.9%
- OPA (w %) ([3]; pH = 8.0, NaOH adjusted, 576 h): 0.537 w %
- Acetal % ([3]; pH = 8.0, NaOH adjusted, 720 h): 3.4%
- OPA % ([3]; pH = 8.0, NaOH adjusted, 720 h): 96.6%
- OPA (w %) ([3]; pH = 8.0, NaOH adjusted, 720 h): 0.551 w %
- Acetal % ([3]; pH = 8.0, NaOH adjusted, 840 h): 2%
- OPA % ([3]; pH = 8.0, NaOH adjusted, 840 h): 98.0%
- OPA (w %) ([3]; pH = 8.0, NaOH adjusted, 840 h): 0.555 w %
- Acetal % ([3]; pH = 8.0, NaOH adjusted, 960 h): 1%
- OPA % ([3]; pH = 8.0, NaOH adjusted, 960 h): 99.0%
- OPA (w %) ([3]; pH = 8.0, NaOH adjusted, 960 h): 0.558 w %
- Acetal % ([3]; pH = 8.9, NaOH adjusted, 0 h): 21.8%
- OPA % ([3]; pH = 8.9, NaOH adjusted, 0 h): 78.2%
- OPA (w %) ([3]; pH = 8.9, NaOH adjusted, 0 h): 0.498 w %
- Acetal % ([3]; pH = 8.9, NaOH adjusted, 96 h): 21.4%
- OPA % ([3]; pH = 8.9, NaOH adjusted, 96 h): 78.6%
- OPA (w %) ([3]; pH = 8.9, NaOH adjusted, 96 h): 0.498 w %
- Acetal % ([3]; pH = 8.9, NaOH adjusted, 240 h): 18.8%
- OPA % ([3]; pH = 8.9, NaOH adjusted, 240 h): 81.2%
- OPA (w %) ([3]; pH = 8.9, NaOH adjusted, 240 h): 0.507 w %
- Acetal % ([3]; pH = 8.9, NaOH adjusted, 336 h): 17.2%
- OPA % ([3]; pH = 8.9, NaOH adjusted, 336 h): 82.8%
- OPA (w %) ([3]; pH = 8.9, NaOH adjusted, 336 h): 0.511 w %
- Acetal % ([3]; pH = 8.9, NaOH adjusted, 480 h): 13.8%
- OPA % ([3]; pH = 8.9, NaOH adjusted, 480 h): 86.2%
- OPA (w %) ([3]; pH = 8.9, NaOH adjusted, 480 h): 0.521 w %
- Acetal % ([3]; pH = 8.9, NaOH adjusted, 600 h): 11.0%
- OPA % ([3]; pH = 8.9, NaOH adjusted, 600 h): 89.0%
- OPA (w %) ([3]; pH = 8.9, NaOH adjusted, 600 h): 0.530 w %
- Acetal % ([3]; pH = 8.9, NaOH adjusted, 720 h): 6.7%
- OPA % ([3]; pH = 8.9, NaOH adjusted, 720 h): 93.3%
- OPA (w %) ([3]; pH = 8.9, NaOH adjusted, 720 h): 0.542 w %
- Acetal % ([3]; pH = 8.9, NaOH adjusted, 840 h): 4.6%
- OPA % ([3]; pH = 8.9, NaOH adjusted, 840 h): 95.4%
- OPA (w %) ([3]; pH = 8.9, NaOH adjusted, 840 h): 0.548 w %
- Acetal % ([3]; pH = 8.9, NaOH adjusted, 960 h): 3.0%
- OPA % ([3]; pH = 8.9, NaOH adjusted, 960 h): 97.0%
- OPA (w %) ([3]; pH = 8.9, NaOH adjusted, 960 h): 0.553 w %
- Acetal % [3, 12]: 1.2%
- OPA % [3, 12]: 98.8%
- OPA (w %) [3, 12]: 0.558 w %
- Dependence of hydrolysis rate on pH ([3]; range of pH investigated): the hydrolysis rate increases with decreasing pH

SMILES: O=Cc1ccccc1C=O [phthalaldehyde, 1,2-benzenedicarboxaldehyde]
- Solubility in water [5]: about 5 % by weight

SMILES: COC1OC(OC)c2ccccc21 (centres unmarked) [1,3-dimethoxyphthalan]
- OPA (w/w %) ([2]; pH = 5.0 (phthalic acid), water, 0 h): 0.000 w/w %
- OPA (w/w %) ([2]; pH = 5.0 (phthalic acid), water, 24 h): 0.028 w/w %
- OPA (w/w %) ([2]; pH = 5.0 (phthalic acid), water, 120 h): 0.166 w/w %
- OPA (w/w %) ([2]; pH = 5.0 (phthalic acid), water, 240 h): 0.301 w/w %
- OPA (w/w %) ([2]; pH = 5.0 (phthalic acid), water, 360 h): 0.367 w/w %
- OPA (w/w %) ([2]; pH = 5.0 (phthalic acid), water, 480 h): 0.405 w/w %
- OPA (w/w %) ([2]; pH = 5.0 (phthalic acid), water, 576 h): 0.417 w/w %

Second part, the compound after the results:

- Mole % in reaction mixture during hydrolysis ([1]; 8 h): 79.7 Mole %
- wt % in reaction mixture during hydrolysis ([1]; 8 h): 0.091 wt %
- Mole % in reaction mixture during hydrolysis ([1]; 32 h): 33.9 Mole %
- wt % in reaction mixture during hydrolysis ([1]; 32 h): 0.039 wt %
- Mole % in reaction mixture during hydrolysis ([1]; 54 h): 0 Mole %
- wt % in reaction mixture during hydrolysis ([1]; 54 h): 0 wt %
SMILES: COC(OC)c1cccc(C=O)c1 [Monoacetal]

- Mole % in reaction mixture during hydrolysis ([1]; 8 h): 20.3 Mole %
- wt % in reaction mixture during hydrolysis ([1]; 8 h): 0.014 wt %
- Mole % in reaction mixture during hydrolysis ([1]; 32 h): 66.1 Mole %
- wt % in reaction mixture during hydrolysis ([1]; 32 h): 0.045 wt %
- Mole % in reaction mixture during hydrolysis ([1]; 54 h): 100 Mole %
- wt % in reaction mixture during hydrolysis ([1]; 54 h): 0.068 wt %
- Solubility [4]: less than 0.4%
SMILES: O=Cc1cccc(C=O)c1 [IPA, 1,3-benzenedicarboxaldehyde, reference compound]
